Assay results taken from patent publication US11034650B2, “Compounds useful for treating a Mannheimia haemolytica or Histophilus somni infection” (Intervet Inc., priority 2016, dated 2021).
≈ marks a conversion by molar mass, not a printed value.

What was measured:
Assay type in all cases: cell-based
[1] = system: Mannheimia haemolytica MH 13093 (XB0472-6014.1, BRD field isolate); assay: MIC, broth-microdilution (CLSI VET01-A4), strain MH 13093; conditions: Mannheimia haemolytica strain MH 13093, broth-microdilution; unit assumed
Description: (§1) For example, representative compounds were tested against ***, Mannheimia haemolytica and Pasteurella multocida, using the conventional broth-dilution assay.
(§2) The Minimum inhibitory concentrations (MIC) of compounds according to the invention for a number of veterinary bacterial pathogens were determined by the broth-microdilution method according to CLSI document VET01-A4.
(§3) Microdilution trays containing a doubling dilution series of the test compound were used for the tests. The MIC results were interpreted according to the CLSI documents VET01-S3. The lowest concentration of compound at which no visible growth (i.e. no turbidity) detected by the unaided eye was recorded as the MIC.

[2] = system: Pasteurella multocida PM 6267 (P 2225 (L386), reference strain, mouse infection strain); assay: MIC, broth-microdilution (CLSI VET01-A4), strain PM 6267; conditions: Pasteurella multocida strain PM 6267, broth-microdilution; unit assumed
Description: as §1, §2, §3

[3] = system: Mannheimia haemolytica MH 6374 (ATCC 33396, reference strain); assay: MIC, broth-microdilution (CLSI VET01-A4), strain MH 6374; conditions: Mannheimia haemolytica strain MH 6374, broth-microdilution; unit assumed
Description: as §1, §2, §3

[4] = system: Pasteurella multocida PM 12080 (IV102277-0093, BRD field isolate); assay: MIC, broth-microdilution (CLSI VET01-A4), strain PM 12080; conditions: Pasteurella multocida strain PM 12080, broth-microdilution; unit assumed
Description: as §1, §2, §3

[5] = system: Mannheimia haemolytica MH 10720 (154, BRD field isolate); assay: MIC, broth-microdilution (CLSI VET01-A4), strain MH 10720; conditions: Mannheimia haemolytica strain MH 10720, broth-microdilution; unit assumed
Description: as §1, §2, §3

[6] = system: Pasteurella multocida PM 10775 (080130003051, BRD field isolate); assay: MIC, broth-microdilution (CLSI VET01-A4), strain PM 10775; conditions: Pasteurella multocida strain PM 10775, broth-microdilution; unit assumed
Description: as §1, §2, §3

[7] = system: Mannheimia haemolytica MH 12587 (1071, BRD field isolate, macrolide-resistance: erm+, E+); assay: MIC, broth-microdilution (CLSI VET01-A4), strain MH 12587; conditions: Mannheimia haemolytica strain MH 12587, broth-microdilution; unit assumed
Description: as §1, §2, §3

[8] = system: Mannheimia haemolytica MH 6357 (M7/2, reference strain, cattle infection strain); assay: MIC, broth-microdilution (CLSI VET01-A4), strain MH 6357; conditions: Mannheimia haemolytica strain MH 6357, broth-microdilution; unit assumed
Description: as §1, §2, §3

[9] = system: Mannheimia haemolytica MH 13065 (XB0446-6003.9, BRD field isolate); assay: MIC, broth-microdilution (CLSI VET01-A4), strain MH 13065; conditions: Mannheimia haemolytica strain MH 13065, broth-microdilution; unit assumed
Description: as §1, §2, §3

Row | MIC PM 6267 [2] [µg/mL] | MIC PM 12080 [4] [µg/mL] | MIC PM 10775 [6] [µg/mL] | Compound | MIC MH 13093 [1] [µg/mL] | MIC MH 6374 [3] [µg/mL] | MIC MH 10720 [5] [µg/mL] | MIC MH 12587 [7] [µg/mL] | MIC MH 6357 [8] [µg/mL] | MIC MH 13065 [9] [µg/mL]
1 | 0.8 (≈ 1.65 µM) | 1.6 (≈ 3.31 µM) | 0.4 (≈ 0.827 µM) | Cc1ccc(CNCc2ccc(C#Cc3ccc(C(=O)N[C@H](C(=O)NO)C(C)C)cc3)cc2)cc1C [Compound 111] | 3.1 (≈ 6.41 µM) | 3.1 (≈ 6.41 µM) | 0.8 (≈ 1.65 µM) | 12.5 (≈ 25.8 µM) | 3.1 (≈ 6.41 µM) | 3.1 (≈ 6.41 µM)
2 | 3.1 (≈ 6.05 µM) | 3.1 (≈ 6.05 µM) | 0.4 (≈ 0.78 µM) | CC[C@H](C)[C@H](NC(=O)c1ccc(C#Cc2ccc(CNCc3ccc(N(C)C)cc3)cc2)cc1)C(=O)NO [Compound 130] | 6.3 (≈ 12.3 µM) | 3.1 (≈ 6.05 µM) | 1.6 (≈ 3.12 µM) | 12.5 (≈ 24.4 µM) | 3.1 (≈ 6.05 µM) | 6.3 (≈ 12.3 µM)
3 | 0.2 (≈ 0.412 µM) | 0.4 (≈ 0.824 µM) | ≤ 0.1 | COc1ccc(CNCc2ccc(C#Cc3ccc(C(=O)N[C@H](C(=O)NO)C(C)C)cc3)cc2)cc1 [Compound 107] | 0.8 (≈ 1.65 µM) | 0.8 (≈ 1.65 µM) | 0.4 (≈ 0.824 µM) | 3.1 (≈ 6.38 µM) | 3.1 (≈ 6.38 µM) | 0.8 (≈ 1.65 µM)
4 | ≤ 0.1 | ≤ 0.1 | ≤ 0.1 | CC(C)[C@H](NC(=O)c1ccc(C#Cc2ccc(CNC3CC3)cc2)cc1)C(=O)NO [Compound 92] | 0.2 (≈ 0.493 µM) | ≤ 0.1 | ≤ 0.1 | 0.2 (≈ 0.493 µM) | 0.8 (≈ 1.97 µM) | ≤ 0.1
5 | 0.2 (≈ 0.474 µM) | 0.8 (≈ 1.9 µM) | ≤ 0.1 | CCN(CC)Cc1ccc(C#Cc2ccc(C(=O)N[C@H](C(=O)NO)C(C)C)cc2)cc1 [Compound 97] | 12.5 (≈ 29.7 µM) | 12.5 (≈ 29.7 µM) | 3.1 (≈ 7.35 µM) | 12.5 (≈ 29.7 µM) | 12.5 (≈ 29.7 µM) | 12.5 (≈ 29.7 µM)
6 | 3.1 (≈ 6.15 µM) | 3.1 (≈ 6.15 µM) | 0.4 (≈ 0.794 µM) | CC[C@H](C)[C@H](NC(=O)c1ccc(C#Cc2ccc(CNCc3ccc(Cl)cc3)cc2)cc1)C(=O)NO [Compound 128] | 6.3 (≈ 12.5 µM) | 3.1 (≈ 6.15 µM) | 0.8 (≈ 1.59 µM) | 12.5 (≈ 24.8 µM) | 3.1 (≈ 6.15 µM) | 3.1 (≈ 6.15 µM)
7 | 0.2 (≈ 0.508 µM) | 0.4 (≈ 1.02 µM) | ≤ 0.1 | O=C(N[C@@H](CO)C(=O)NO)c1ccc(C#Cc2ccc(CNC3CC3)cc2)cc1 [Compound 71] | 3.1 (≈ 7.88 µM) | 0.8 (≈ 2.03 µM) | 0.4 (≈ 1.02 µM) | 1.6 (≈ 4.07 µM) | 1.6 (≈ 4.07 µM) | 0.8 (≈ 2.03 µM)
8 | ≤ 0.1 | 0.4 (≈ 0.878 µM) | ≤ 0.1 | CC(C)[C@H](NC(=O)c1ccc(C#Cc2ccc(CNCc3ccccc3)cc2)cc1)C(=O)NO [Compound 104] | 0.8 (≈ 1.76 µM) | 0.4 (≈ 0.878 µM) | ≤ 0.1 | 1.6 (≈ 3.51 µM) | 0.4 (≈ 0.878 µM) | 0.4 (≈ 0.878 µM)
9 | 1.6 (≈ 4.05 µM) | 12.5 (≈ 31.6 µM) | 0.8 (≈ 2.02 µM) | CC(C)NCc1ccc(C#Cc2ccc(C(=O)N[C@@H](CO)C(=O)NO)cc2)cc1 [Compound 72] | 12.5 (≈ 31.6 µM) | 12.5 (≈ 31.6 µM) | 6.3 (≈ 15.9 µM) | 25 (≈ 63.2 µM) | 12.5 (≈ 31.6 µM) | 12.5 (≈ 31.6 µM)
10 | ≤ 0.1 | 0.4 (≈ 0.85 µM) | ≤ 0.1 | CC[C@H](C)[C@H](NC(=O)c1ccc(C#Cc2ccc(CNCc3ccncc3)cc2)cc1)C(=O)NO [Compound 132] | 0.8 (≈ 1.7 µM) | 0.8 (≈ 1.7 µM) | 0.2 (≈ 0.425 µM) | 0.8 (≈ 1.7 µM) | 1.6 (≈ 3.4 µM) | 0.8 (≈ 1.7 µM)
11 | 0.8 (≈ 1.78 µM) | 3.1 (≈ 6.88 µM) | 0.4 (≈ 0.888 µM) | CC[C@H](C)[C@H](NC(=O)c1ccc(C#Cc2ccc(CNCCN(C)C)cc2)cc1)C(=O)NO [Compound 116] | 25 (≈ 55.5 µM) | 25 (≈ 55.5 µM) | 3.1 (≈ 6.88 µM) | 1 (≈ 2.22 µM) | 25 (≈ 55.5 µM) | 25 (≈ 55.5 µM)
